Data on 27 compounds can be found in patent publication US11420958B2, “Aryl and heteroaryl substituted indole compounds” (BRISTOL-MYERS SQUIBB COMPANY, priority 2017, dated 2022).

Assay type in all cases: cell-based
The target in test [1] is human TLR9 (Homo sapiens (Human), UniProt Q9NR96). Nature of the test: TLR9 inhibition reporter assay (HEK-Blue, SEAP). The settings on record: HEK-Blue cells overexpressing human TLR9, ODN2006 5 nM stimulation. In a few lines: (§1)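 After 30 min room-temperature pre-incubation with compound (0.05 nM–50 μM), reporter HEK-Blue lines were activated by ODN2006 5 nM for TLR9, R848 15.9 μM for TLR8 or gardiquimod 7.5 μM for TLR7. SEAP detected after 22 h, 37 °C; inhibition scaled between agonist+DMSO wells and known-inhibitor control.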
(In general: In a reporter assay the amount or activity of a reporter protein is the signal.)

In test [2] the target is human TLR7 (Homo sapiens (Human), UniProt Q9NYK1). Nature of the test: TLR7 inhibition reporter assay (HEK-Blue, SEAP). As to conditions: HEK-Blue cells overexpressing human TLR7, gardiquimod 7.5 μM stimulation. In a few lines:
as §1

Test [3] has as its target human TLR8 (Homo sapiens (Human), UniProt Q9NR97). Nature of the test: TLR8 inhibition reporter assay (HEK-Blue, SEAP). As to conditions: HEK-Blue cells overexpressing human TLR8, R848 15.9 μM stimulation. In a few lines: as §1

human TLR9, sequence (Q9NR96 26-1032): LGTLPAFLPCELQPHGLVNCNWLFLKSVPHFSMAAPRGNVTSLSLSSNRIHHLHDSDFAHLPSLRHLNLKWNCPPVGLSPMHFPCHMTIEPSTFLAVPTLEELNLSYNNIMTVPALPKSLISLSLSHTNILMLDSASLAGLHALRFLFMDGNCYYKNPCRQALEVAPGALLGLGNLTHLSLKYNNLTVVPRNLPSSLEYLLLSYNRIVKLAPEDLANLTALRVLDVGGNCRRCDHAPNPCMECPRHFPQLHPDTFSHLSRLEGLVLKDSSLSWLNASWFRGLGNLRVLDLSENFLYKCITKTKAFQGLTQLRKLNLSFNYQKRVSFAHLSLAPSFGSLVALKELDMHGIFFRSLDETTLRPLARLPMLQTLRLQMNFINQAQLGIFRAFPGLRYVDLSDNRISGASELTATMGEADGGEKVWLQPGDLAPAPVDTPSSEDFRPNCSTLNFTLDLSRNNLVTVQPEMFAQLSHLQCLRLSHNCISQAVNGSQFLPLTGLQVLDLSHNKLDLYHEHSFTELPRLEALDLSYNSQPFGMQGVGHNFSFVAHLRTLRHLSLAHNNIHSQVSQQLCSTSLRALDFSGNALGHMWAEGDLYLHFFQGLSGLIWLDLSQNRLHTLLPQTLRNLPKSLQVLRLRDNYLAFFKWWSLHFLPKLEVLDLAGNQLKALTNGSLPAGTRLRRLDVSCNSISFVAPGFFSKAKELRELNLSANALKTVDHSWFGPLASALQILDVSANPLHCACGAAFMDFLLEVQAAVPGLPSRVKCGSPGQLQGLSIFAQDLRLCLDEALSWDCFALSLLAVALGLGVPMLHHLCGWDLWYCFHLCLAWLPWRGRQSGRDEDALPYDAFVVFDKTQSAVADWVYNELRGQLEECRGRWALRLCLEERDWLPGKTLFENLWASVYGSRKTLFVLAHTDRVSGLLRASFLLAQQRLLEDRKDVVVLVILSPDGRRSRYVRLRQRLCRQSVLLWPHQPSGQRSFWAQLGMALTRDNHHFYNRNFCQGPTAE
human TLR7, sequence (Q9NYK1 27-1049): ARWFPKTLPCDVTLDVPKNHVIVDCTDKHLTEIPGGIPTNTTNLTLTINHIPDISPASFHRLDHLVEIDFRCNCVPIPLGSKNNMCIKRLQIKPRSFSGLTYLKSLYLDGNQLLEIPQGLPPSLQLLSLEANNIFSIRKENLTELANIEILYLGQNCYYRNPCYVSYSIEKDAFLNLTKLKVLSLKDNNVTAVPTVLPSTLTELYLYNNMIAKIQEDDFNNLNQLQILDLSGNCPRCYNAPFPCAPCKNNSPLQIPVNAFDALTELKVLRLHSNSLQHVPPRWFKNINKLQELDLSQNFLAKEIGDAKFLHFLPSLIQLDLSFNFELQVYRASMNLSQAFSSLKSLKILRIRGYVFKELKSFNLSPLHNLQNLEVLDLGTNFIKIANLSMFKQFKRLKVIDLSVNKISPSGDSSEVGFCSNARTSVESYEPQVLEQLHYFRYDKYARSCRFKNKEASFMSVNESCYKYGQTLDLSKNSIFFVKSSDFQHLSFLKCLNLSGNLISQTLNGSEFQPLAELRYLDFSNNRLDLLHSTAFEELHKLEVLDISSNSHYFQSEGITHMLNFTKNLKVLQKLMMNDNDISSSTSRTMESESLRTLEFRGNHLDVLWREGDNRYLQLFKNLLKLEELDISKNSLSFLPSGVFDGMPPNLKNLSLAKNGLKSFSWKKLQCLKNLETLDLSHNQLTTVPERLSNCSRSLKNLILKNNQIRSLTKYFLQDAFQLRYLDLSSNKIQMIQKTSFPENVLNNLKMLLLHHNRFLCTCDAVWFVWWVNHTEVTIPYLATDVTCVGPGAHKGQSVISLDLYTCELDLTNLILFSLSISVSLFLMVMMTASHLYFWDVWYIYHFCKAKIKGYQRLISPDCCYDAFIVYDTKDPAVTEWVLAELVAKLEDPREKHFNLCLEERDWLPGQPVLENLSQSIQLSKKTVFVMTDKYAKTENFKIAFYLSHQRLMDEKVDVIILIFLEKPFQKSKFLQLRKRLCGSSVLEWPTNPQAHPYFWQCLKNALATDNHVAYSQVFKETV
human TLR8, sequence (Q9NR97 27-1041): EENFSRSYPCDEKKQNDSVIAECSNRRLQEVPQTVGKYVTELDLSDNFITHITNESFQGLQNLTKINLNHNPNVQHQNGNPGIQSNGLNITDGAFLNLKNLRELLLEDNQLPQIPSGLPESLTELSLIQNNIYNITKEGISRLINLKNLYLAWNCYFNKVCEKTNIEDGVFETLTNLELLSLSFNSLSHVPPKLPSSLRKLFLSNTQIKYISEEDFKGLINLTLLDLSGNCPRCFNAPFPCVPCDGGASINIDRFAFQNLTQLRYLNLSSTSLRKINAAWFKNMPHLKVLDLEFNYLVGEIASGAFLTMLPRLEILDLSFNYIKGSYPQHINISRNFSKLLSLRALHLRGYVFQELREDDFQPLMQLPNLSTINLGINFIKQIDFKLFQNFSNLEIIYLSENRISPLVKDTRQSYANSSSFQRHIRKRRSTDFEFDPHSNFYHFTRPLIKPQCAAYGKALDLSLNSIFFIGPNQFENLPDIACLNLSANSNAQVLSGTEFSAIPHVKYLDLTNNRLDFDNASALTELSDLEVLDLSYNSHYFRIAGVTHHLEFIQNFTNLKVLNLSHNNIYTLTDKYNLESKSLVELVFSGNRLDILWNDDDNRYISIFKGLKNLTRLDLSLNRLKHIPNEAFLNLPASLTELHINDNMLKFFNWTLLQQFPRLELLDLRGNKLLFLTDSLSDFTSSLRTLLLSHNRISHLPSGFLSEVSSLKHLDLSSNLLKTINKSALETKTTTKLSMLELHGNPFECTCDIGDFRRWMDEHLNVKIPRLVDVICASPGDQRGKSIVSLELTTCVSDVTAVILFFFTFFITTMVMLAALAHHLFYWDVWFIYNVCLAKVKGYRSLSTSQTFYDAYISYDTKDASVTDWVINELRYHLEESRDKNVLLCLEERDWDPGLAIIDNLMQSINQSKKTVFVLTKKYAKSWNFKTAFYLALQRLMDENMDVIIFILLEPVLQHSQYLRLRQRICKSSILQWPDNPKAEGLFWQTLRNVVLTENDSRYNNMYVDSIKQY

What is called IC50 is the concentration needed to halve the response being measured. Read a high IC50 as weaker potency. For `CCc1c(-c2ccc(OC)c(OC)c2)[nH]c2ccc(-c3ccc(N4CCNCC4)cc3)cc12` [Example 399, 2-(3,4-dimethoxyphenyl)-3-ethyl-5-(4-(piperazin-1-yl)phenyl)-1H-indole], the IC50 is 721 nM in test [1], 947 nM in test [2] and 28 nM in test [3].
Turning to `COc1ccc(-c2[nH]c3ccc(-c4ccc(NCCCN(C)C)cc4)cc3c2C(C)C)cc1OC` [Example 400, N1-(4-(2-(3,4-dimethoxyphenyl)-3-isopropyl-1H-indol-5-yl)phenyl)-N3,N3-dimethylpropane-1,3-diamine], the figures for the IC50 in test [1], in test [2] and in test [3] were 2660 nM, 165 nM and 35 nM, respectively.
The corresponding values for `COc1ccc(-c2[nH]c3ccc(-c4ccc(NCCN5CCOCC5)cc4)cc3c2C(C)C)cc1OC` [Example 401, 4-(2-(3,4-dimethoxyphenyl)-3-isopropyl-1H-indol-5-yl)-N-(2-morpholinoethyl)aniline] are 43300 nM, 541 nM and 77 nM.
With `COc1ccc(-c2[nH]c3ccc(-c4ccc(NC5CCCNC5)cc4)cc3c2C(C)C)cc1OC` (stereo not drawn) [Example 402, N-(4-(2-(3,4-dimethoxyphenyl)-3-isopropyl-1H-indol-5-yl)phenyl)piperidin-3-amine], the IC50 in test [1] is 2320 nM; in test [2] it was 200 nM; in test [3] it was 21 nM.
With `COc1ccc(-c2[nH]c3ccc(-c4ccc(N5CCN(C6CCCC6)CC5)cc4)cc3c2C(C)C)cc1OC` [Example 403, 5-(4-(4-cyclopentylpiperazin-1-yl)phenyl)-2-(3,4-dimethoxyphenyl)-3-isopropyl-1H-indole], the IC50 in test [1] was greater than 50000 nM; in test [2] it was 570 nM; in test [3] it was 312 nM.
As for `CNCCNc1ccc(-c2ccc3[nH]c(-c4ccc(OC)c(OC)c4)c(C(C)C)c3c2)cc1` [Example 404, N1-(4-(2-(3,4-dimethoxyphenyl)-3-isopropyl-1H-indol-5-yl)phenyl)-N2-methylethane-1,2-diamine], the IC50 is 9680 nM in test [1], 246 nM in test [2] and 38 nM in test [3].
In the case of `COc1ccc(-c2[nH]c3ccc(-c4ccc(N5CCC(c6ccncc6)CC5)cc4)cc3c2C(C)C)cc1OC` [Example 405, 2-(3,4-dimethoxyphenyl)-3-isopropyl-5-(4-(4-(pyridin-4-yl)piperidin-1-yl)phenyl)-1H-indole], the IC50 in test [1] was greater than 50000 nM; in test [2], 1560 nM; in test [3] it was 464 nM.
Take `COc1ccc(-c2[nH]c3ccc(-c4ccc(-c5cccnc5)cc4)cc3c2C(C)C)cc1OC` [Example 406, 2-(3,4-dimethoxyphenyl)-3-isopropyl-5-(4-(pyridin-3-yl)phenyl)-1H-indole]: the IC50 in test [1] was greater than 50000 nM; in test [2], 2610 nM; in test [3], 2220 nM.
The corresponding values for `COc1ccc(-c2[nH]c3ccc(-c4ccc(C5=CCNCC5)cc4)cc3c2C)cc1OC` [Example 408, 2-(3,4-dimethoxyphenyl)-3-methyl-5-(4-(1,2,3,6-tetrahydropyridin-4-yl)phenyl)-1H-indole] are 729 nM, 8620 nM and greater than 50000 nM.
As to `COc1ccc(-c2[nH]c3ccc(-c4cccc(-c5ccc6nonc6c5)c4)cc3c2C(C)C)cc1OC` [Example 409, 5-(3-(2-(3,4-dimethoxyphenyl)-3-isopropyl-1H-indol-5-yl)phenyl)benzo[c][1,2,5]oxadiazole], the values for the IC50 in test [1], in test [2] and in test [3] were greater than 50000 nM, 1280 nM and 429 nM, respectively.
Regarding `COc1ccc(-c2[nH]c3ccc(-c4ccc(OC5CCNCC5)cc4)cc3c2C(C)C)cc1OC` [Example 410, 2-(3,4-dimethoxyphenyl)-3-isopropyl-5-(4-(piperidin-4-yloxy)phenyl)-1H-indole], the IC50 came out at 4910 nM in test [1], 274 nM in test [2] and 55 nM in test [3].
The corresponding values for `COc1ccc(-c2[nH]c3ccc(-c4cccc(N5CCNCC5)c4)cc3c2C(C)C)cc1OC` [Example 411, 2-(3,4-dimethoxyphenyl)-3-isopropyl-5-(3-(piperazin-1-yl)phenyl)-1H-indole] are 8430 nM, 604 nM and 96 nM.
Regarding `COc1ccc(-c2[nH]c3ccc(-c4ccc(OCCN5CCCC5)cc4)cc3c2C(C)C)cc1OC` [Example 412, 2-(3,4-dimethoxyphenyl)-3-isopropyl-5-(4-(2-(pyrrolidin-1-yl)ethoxy)phenyl)-1H-indole], the IC50 is greater than 50000 nM in test [1], 34 nM in test [2] and 26 nM in test [3].
In the case of `COc1ccc(-c2[nH]c3ccc(-c4ccc(CN5CCOCC5)cc4)cc3c2C(C)C)cc1OC` [Example 413, 4-(4-(2-(3,4-dimethoxyphenyl)-3-isopropyl-1H-indol-5-yl)benzyl)morpholine], the IC50 in test [1] was greater than 50000 nM; in test [2], 440 nM; in test [3], 38 nM.
Take `CC(C)c1c(-c2ccnc3[nH]ncc23)[nH]c2ccc(-c3cccc(CO)c3)cc12` [Example 414, (3-(3-isopropyl-2-(1H-pyrazolo[3,4-b]pyridin-4-yl)-1H-indol-5-yl)phenyl)methanol]: the IC50 in test [1] was greater than 50000 nM; in test [2], 771 nM; in test [3], 63 nM.
For the compound `CC(C)c1c(-c2ccnc3[nH]ncc23)[nH]c2ccc(-c3cccc(S(N)(=O)=O)c3)cc12` [Example 415, 3-(3-isopropyl-2-(1H-pyrazolo[3,4-b]pyridin-4-yl)-1H-indol-5-yl)benzenesulfonamide], the 50% inhibitory concentration (IC50) in test [1] was greater than 50000 nM; in test [2], 820 nM; in test [3], 56 nM.
For `COc1ccc(-c2[nH]c3ccc(-c4ccc(N5CCOCC5)nc4)cc3c2C(C)C)cc1OC` [Example 416, 4-(5-(2-(3,4-dimethoxyphenyl)-3-isopropyl-1H-indol-5-yl)pyridin-2-yl)morpholine], the IC50 is greater than 50000 nM in test [1], 2290 nM in test [2] and 71 nM in test [3].
For `COc1ccc(-c2[nH]c3ccc(-c4ccc(N5CCNCC5)nc4)cc3c2C(C)C)cc1OC` [Example 417, 2-(3,4-dimethoxyphenyl)-3-isopropyl-5-(6-(piperazin-1-yl)pyridin-3-yl)-1H-indole], the IC50 in test [1] was 1220 nM; in test [2] it was 49 nM; in test [3], 6.8 nM.
As for `COc1ccc(-c2[nH]c3ccc(-c4cnc(N5CCN(CC(C)C)CC5)cc4C)cc3c2C(C)C)cc1OC` [Example 418, 2-(3,4-dimethoxyphenyl)-5-(6-(4-isobutylpiperazin-1-yl)-4-methylpyridin-3-yl)-3-isopropyl-1H-indole], the IC50 in test [1] amounted to 3540 nM; in test [2], 879 nM; in test [3], 41 nM.
As for `COc1ccc(-c2[nH]c3ccc(-c4cnc(N5CCNCC5)cc4C)cc3c2C(C)C)cc1OC` [Example 419, 2-(3,4-dimethoxyphenyl)-3-isopropyl-5-(4-methyl-6-(piperazin-1-yl)pyridin-3-yl)-1H-indole], the IC50 in test [1] is 1390 nM; in test [2] it was 50 nM; in test [3] it was 14 nM.
Regarding `COc1ccc(-c2[nH]c3ccc(-c4cnc(N5CCN(C(C)C)CC5)cc4C)cc3c2C(C)C)cc1OC` [Example 420, 2-(3,4-dimethoxyphenyl)-3-isopropyl-5-(6-(4-isopropylpiperazin-1-yl)-4-methylpyridin-3-yl)-1H-indole], the IC50 in test [1] was 693 nM; in test [2] it was 334 nM; in test [3], 4.7 nM.
The corresponding values for `COc1ccc(-c2[nH]c3ccc(-c4ccc(OCCCN(C)C)nc4)cc3c2C(C)C)cc1OC` [Example 421, 3-((5-(2-(3,4-dimethoxyphenyl)-3-isopropyl-1H-indol-5-yl)pyridin-2-yl)oxy)-N,N-dimethylpropan-1-amine] are 2750 nM, 63 nM and 12 nM.
Take `COc1ccc(-c2[nH]c3ccc(-c4ccnc(N5CCN(C6CCCC6)CC5)c4)cc3c2C(C)C)cc1OC` [Example 426, 5-(2-(4-cyclopentylpiperazin-1-yl)pyridin-4-yl)-2-(3,4-dimethoxyphenyl)-3-isopropyl-1H-indole]: the IC50 stood at 1450 nM in test [1], 838 nM in test [2] and 56 nM in test [3].
For `COc1ccc(-c2[nH]c3ccc(-c4ccnc(N5CCN(C6CCC6)CC5)c4)cc3c2C(C)C)cc1OC` [Example 427, 5-(2-(4-cyclobutylpiperazin-1-yl)pyridin-4-yl)-2-(3,4-dimethoxyphenyl)-3-isopropyl-1H-indole], the half-maximal inhibitory concentration (IC50) came out at 2530 nM in test [1], 960 nM in test [2] and 56 nM in test [3].
Regarding `CC(C)c1c(-c2ccnc3[nH]ncc23)[nH]c2ccc(-c3ccnn3C)cc12` [Example 428, 4-(3-isopropyl-5-(1-methyl-1H-pyrazol-5-yl)-1H-indol-2-yl)-1H-pyrazolo[3,4-b]pyridine], the IC50 in test [1] came out at 14500 nM; in test [2], 194 nM; in test [3] it was 12 nM.
The corresponding values for `COc1ccc(-c2[nH]c3ccc(-c4cnc(N5CCN(CCC(C)O)CC5)nc4)cc3c2C(C)C)cc1OC` (stereo not drawn) [Example 431, 4-(4-(5-(2-(3,4-dimethoxyphenyl)-3-isopropyl-1H-indol-5-yl)pyrimidin-2-yl)piperazin-1-yl)butan-2-ol] are 3300 nM, 145 nM and 31 nM.
The corresponding values for `COc1ccc(-c2[nH]c3ccc(-c4cnc(N5CCN(C)CC5)nc4)cc3c2C(C)C)cc1OC` [Example 432, 2-(3,4-dimethoxyphenyl)-3-isopropyl-5-(2-(4-methylpiperazin-1-yl)pyrimidin-5-yl)-1H-indole] are 3240 nM, 65 nM and 17 nM.
